From paper PMC9468151, “Identification of a binding site on soluble RANKL that can be targeted to inhibit soluble RANK-RANKL interactions and treat osteoporosis” (Nature Communications, 2022)
Several values for one entry are separate records, joined by “and”; a condition that tells them apart may be missing. Identical values can stand only once.

Assays:
T lymphocyte = T lymphocyte cell proliferation assay (CFSE, CD4+/CD8+ flow cytometry); format: cell-based, human; details: for CFSE- cells in total cells (%) / CD8+ cells in total cells (%) / CD8+cells in CFSE-cells (%): Healthy donor 2, 9 day
Procedure: T lymphocyte cell proliferation assay was performed according to a reported method[58] with some modification. Briefly, 5 × 10^6 cells /mL cells were stained 2.5 μM CFSE (Tonbo Biosciences) and incubated at 37 °C for 12 min. Then washed and discarded the supernatant and adjusted the CFSE stained cell to 1.75 × 10^6 cells /mL. Cells were diluted in 1640 completed medium containing 5 μg/mL anti-CD3 antibody (Tonbo Biosciences) to 3 × 10^5 cells/mL and seed in a 96-well plate or 24-well plate that pre-packaged 0.4 μg/well anti-CD28 antibody and 1.6 μg anti-CD28 antibody (24-well) (Tonbo Biosciences). Cells were then cultured for 3 days, 9 days or 12 days. Subsequently, the proportion of CD4^+ and CD8^+ cells was determined by flow cytometry (Beckman Coulter, FC500) according to manufacturer’s instruction of PE-Cyanine7 anti-Human CD8a and PE anti-Human CD4 antibodies (Tonbo Biosciences). Data analyzing was performed by using CXP software (Beckman Coulter, Supplementary Fig. 8).

OVX rats = test: Serum biochemical markers determination; format: in vivo, rat; set-up: TG / ALT / AST / ALP / GLU / TC / Ca / TBA / TBIL / BUN / CREA: unit not given here
From the text: After treating with S3-15 for 12 weeks, rat serum was harvested and analyzed routine blood biochemical markers, including calcium (Ca), phosphorus (P), total cholesterol (TC), triglyceride (TG), glucose (Glu), aspartate aminotransferase (AST), alanine aminotransferase (ALT), alkaline phosphatase (ALP), total bile acid (TBIL), total bilirubin (TBA), creatinine (CREA), urea nitrogen (BUN). Ca, P, AST, ALT, ALP, CREA, and BUN were purchased from Wako Pure Chemical, Japan; Glu,TC, TG, TBIL, and TBA were purchased from Kehua Bio-engineering Co.LTD, China. Routine blood biochemical markers were examined with a Hitachi chemistry automated analyzer (Hitachi 7020, Japan) according to manufacturer’s instruction.

[1] = cancer patient donors 1, 3 day, S3-15 conc. 0.2
[2] = cancer patient donors 1, 3 day, S3-15 conc. 1
[3] = cancer patient donors 1, 3 day, S3-15 conc. 5
[4] = cancer patient donors 1, 3 day, S3-15 conc. 10
[5] = healthy donors 2, 9 day, S3-15 conc. 0.2
[6] = healthy donors 2, 9 day, S3-15 conc. 1
[7] = healthy donors 2, 9 day, S3-15 conc. 5
[8] = healthy donors 2, 9 day, S3-15 conc. 10
[9] = serum, OVX rats, individual animals

Compound: CC(=O)/C(=N\Nc1ccccc1C(=O)O)C(=O)Nc1ccccn1 [S3-15]
- CFSE- cells in total cells (%) (T lymphocyte; S3-15 0.2): 42.85% and 34.53% and 42.91%
- CD8+ cells in total cells (%) (T lymphocyte; S3-15 1): 57.52% and 60.07% and 56.11%
- CD8+cells in CFSE-cells (%) (T lymphocyte; S3-15 1): 48.8% and 34.73% and 39.45%
- CFSE- cells in total cells (%) (T lymphocyte; S3-15 1): 48.46% and 65.6% and 38.41%
- CD8+ cells in total cells (%) (T lymphocyte; S3-15 5): 39.84% and 41.04% and 43.72%
- CD8+cells in CFSE-cells (%) (T lymphocyte; S3-15 5): 45.39% and 36.07% and 59.1%
- CFSE- cells in total cells (%) (T lymphocyte; S3-15 5): 43.47% and 38.16% and 54.05%
- CD8+ cells in total cells (%) (T lymphocyte; S3-15 10): 61.43% and 57.64% and 58.69%
- CD8+cells in CFSE-cells (%) (T lymphocyte; S3-15 10): 58.1% and 47.19% and 40.24%
- CFSE- cells in total cells (%) (T lymphocyte; S3-15 10): 51.79% and 37.98% and 32.24%
- CD4+cells in total cells (%) (T lymphocyte; [1]): 12.08% and 10.6% and 16.64% and 9.84%
- CFSE-CD4+cells in CFSE-cells (%) (T lymphocyte; [1]): 2.66% and 4.81% and 10.71% and 8.92%
- CD4+cells in total cells (%) (T lymphocyte; [2]): 18.36% and 15% and 12.2% and 13.48%
- CFSE-CD4+cells in CFSE-cells (%) (T lymphocyte; [2]): 2.71% and 4.16% and 9.18% and 4.63%
- CD4+cells in total cells (%) (T lymphocyte; [3]): 12.53% and 13.43% and 14.21% and 19.52%
- CFSE-CD4+cells in CFSE-cells (%) (T lymphocyte; [3]): 4.9% and 5.71% and 2.54% and 4.68%
- CD4+cells in total cells (%) (T lymphocyte; [4]): 8.57% and 13.89% and 11.58% and 13%
- CFSE-CD4+cells in CFSE-cells (%) (T lymphocyte; [4]): 6.23% and 7.1% and 4.66% and 4.48%
- CD4+cells in total cells (%) (T lymphocyte; healthy donors 1, 3 day, S3-15 conc. 0.2): 58.71% and 65.57% and 73.86% and 89.25%
- CD4+cells in total cells (%) (T lymphocyte; healthy donors 1, 3 day, S3-15 conc. 1): 88.98% and 73.53% and 85.9% and 87.87%
- CD4+cells in total cells (%) (T lymphocyte; healthy donors 1, 3 day, S3-15 conc. 5): 88.97% and 73.33% and 75.77% and 81.04%
- CD4+cells in total cells (%) (T lymphocyte; healthy donors 1, 3 day, S3-15 conc. 10): 84.3% and 76.41% and 71.29%
- CFSE-CD4+cells in CFSE-cells (%) (T lymphocyte; healthy donors 1, 12 day, S3-15 conc. 0.2): 11.71% and 10.81% and 13.35% and 13.65%
- CFSE-CD4+cells in CFSE-cells (%) (T lymphocyte; healthy donors 1, 12 day, S3-15 conc. 1): 10.81% and 12.31% and 11.84% and 10.58%
- CFSE-CD4+cells in CFSE-cells (%) (T lymphocyte; healthy donors 1, 12 day, S3-15 conc. 5): 11% and 11.24% and 11.79% and 10.58%
- CFSE-CD4+cells in CFSE-cells (%) (T lymphocyte; healthy donors 1, 12 day, S3-15 conc. 10): 15.92% and 12.12% and 12.19% and 12.32%
- CD4+cells in total cells (%) (T lymphocyte; [5]): 20.78% and 19.93% and 21.03%
- CFSE-CD4+cells in CFSE-cells (%) (T lymphocyte; [5]): 37.84% and 45.82% and 32.47%
- CD4+cells in total cells (%) (T lymphocyte; [6]): 25.04% and 25.92% and 25.62%
- CFSE-CD4+cells in CFSE-cells (%) (T lymphocyte; [6]): 42.79% and 60.67% and 51.42%
- CD4+cells in total cells (%) (T lymphocyte; [7]): 24.48% and 26.48% and 22.29%
- CFSE-CD4+cells in CFSE-cells (%) (T lymphocyte; [7]): 46.81% and 55.67% and 30.69%
- CD4+cells in total cells (%) (T lymphocyte; [8]): 21.17% and 21.09% and 21.21%
- CFSE-CD4+cells in CFSE-cells (%) (T lymphocyte; [8]): 34.98% and 45.24% and 51.76%
- lymphocyte proliferation (T lymphocyte; human lymphocytes, in words): did not change lymphocyte proliferation
- organ toxicity / routine blood examination (OVX rats; rats, 12 weeks treatment): no organ toxicity in vivo
- ALP (OVX rats; [9]): 35 and 77 and 34 and 39 and 60 and 23 and 42 and 48 and 49
- ALT (OVX rats; [9]): 29 and 34 and 37 and 33 and 38 and 25 and 28 and 32 and 39
- AST (OVX rats; [9]): 82 and 90 and 88 and 109 and 96 and 114 and 85 and 87 and 95
- BUN (OVX rats; [9]): 5.99 and 5.28 and 6.41 and 6.31 and 5.6 and 5.72 and 5.71 and 5.18 and 6
- CREA (OVX rats; [9]): 58.7 and 57.9 and 57 and 66.1 and 49.8 and 56.6 and 56.8 and 65.7 and 60.7
- Ca (OVX rats; [9]): 2.46 and 2.39 and 2.41 and 2.43 and 2.15 and 2.33 and 2.34
- GLU (OVX rats; [9]): 10.2096 and 9.028 and 12.7431 and 8.981 and 13.9764 and 7.763 and 10.2611 and 9.122 and 11.2914
- TBA (OVX rats; [9]): 26.48 and 20.71 and 36.69 and 15.65 and 15.57 and 21.76 and 21.4 and 18.86 and 18.33
- TBIL (OVX rats; [9]): 1.84 and 1.07 and 1.06 and 1.28 and 0.95 and 0.98 and 0.77 and 0.97 and 0.78
- TC (OVX rats; [9]): 2.99 and 2.55 and 2.35 and 2.13 and 2.5 and 2.24 and 2.36 and 2.45
- TG (OVX rats; [9]): 1.05 and 0.75 and 0.49 and 0.31 and 0.47 and 0.65 and 0.46 and 0.64
